Assay: molar heat capacity at constant pressure; mn = molality of the nth substance listed, in mol/kg
Details: 350 kPa, Liquid, high-precision DSC

CSCC[C@H](N)C(=O)O [L-methionine] + O
molar heat capacity at constant pressure [J/K/mol]
Details	m1 = 0.0125	m1 = 0.025	m1 = 0.05	m1 = 0.0997	m1 = 0.1501	m1 = 0.1929
278.15 K	75.75	75.8	75.86	76.01	76.17	76.3
283.15 K	75.58	75.64	75.71	75.87	76.04	76.19
288.15 K	75.47	75.53	75.6	75.78	75.96	76.12
293.15 K	75.39	75.46	75.53	75.72	75.92	76.08
298.15 K	75.34	75.41	75.49	75.69	75.89	76.06
303.15 K	75.31	75.38	75.46	75.67	75.88	76.05
308.15 K	75.3	75.37	75.45	75.66	75.88	76.05
313.15 K	75.3	75.37	75.46	75.67	75.9	76.06
318.15 K	75.31	75.38	75.47	75.68	75.92	76.09
323.15 K	75.33	75.4	75.5	75.71	75.95	76.12
328.15 K	75.37	75.44	75.53	75.75	75.99	76.16
333.15 K	75.41	75.48	75.57	75.79	76.03	76.21
338.15 K	75.45	75.53	75.62	75.84	76.08	76.26
343.15 K	75.51	75.59	75.68	75.9	76.13	76.32
348.15 K	75.58	75.65	75.75	75.96	76.2	76.38
353.15 K	75.65	75.72	75.82	76.03	76.27	76.46
358.15 K	75.73	75.8	75.9	76.11	76.35	76.54
363.15 K	75.82	75.88	75.98	76.2	76.43	76.62
368.15 K	75.91	75.98	76.08	76.29	76.53	76.71
373.15 K	76.01	76.08	76.18	76.39	76.63	76.81
378.15 K	76.13	76.19	76.29	76.5	76.74	76.92
383.15 K	76.24	76.31	76.41	76.62	76.85	77.03
388.15 K	76.38	76.45	76.54	76.74	76.98	77.15
393.15 K	76.52	76.6	76.68	76.88	77.11	77.28
